# Patent publication USRE43000E1, “Artificial riboswitch for controlling pre-mRNA splicing” (City of Hope, priority 2005, dated 2011)
# Experiments:
# MINX-Theo28AG pre-mRNA = test: In vitro splicing of MINX-Theo28AG pre-mRNA; type: biochemical
# Text: To determine whether the aforementioned reasons could be the cause of step II splicing inhibition, an AdML derivative with BPS-to-AG distance of 29 nucleotides and the sequence between the poly(Y) tract and AG bearing the substitutions of cytidine for guanosine was synthesized (FIG. 3A; AdML-Theo-29AG). […] To rule out the possibility that the observed results are substrate specific, a derivative of MINX pre-mRNA (Zillmann et al., 1988) (MINX-Theo28AG) carrying the high affinity theophylline binding aptamer between the poly (Y) tract and 3′ splice site AG was synthesized. […] Accordingly, the BPS-to-AG distance plays a role in theophylline-dependent modulation of RNA splicing.
# Nuclear extracts were prepared from HeLa cells (obtained from National Cell Culture), essentially as described by Dignam et al., (Dignam et al., 1983). […] Splicing intermediates and products were analyzed by electrophoresis in 13% denaturing polyacrylamide gels. The fractionated RNAs were visualized by PhosphorImager (Molecular Dynamics) and RNA signals were quantified by ImageQuant version 4.2 software (Molecular Dynamics) or ImageJ version 1.36 software (Rasband, W. S., ImageJ, U.S. National Institutes of Health, Bethesda, Md., http://rsb.info.nih.gov/ij, 1997-2006).
# [1] = tested on: pAdML-Theo29AG-EGFP reporter in HEK293 cells; test: GFP splicing reporter in HEK293 cells (fluorescence microscopy, RT-PCR); type: cell-based; set-up: GFP expression of cells transfected with pAdML-Theo29AG-EGFP: dose or concentration left out as unconfirmed
# Text: Controlling gene expression in living cells through theophylline-RNA interaction. […] To determine if such an approach could also regulate gene expression in living cells, a splicing reporter was constructed in which the cDNA of AdML-Theo29AG pre-mRNA was inserted into the 5′ UTR of green fluorescence protein (GFP) cDNA. It was contemplated that theophylline mediated inhibition of AdML-Theo29AG splicing will prevent the export of GFP mRNA which will be mirrored by the lack of GFP expression. The reporter plasmid was constructed by standard molecular cloning approach. In brief, a PCR amplified DNA fragment containing the entire AdML-Theo29AG sequence was cloned into the EcoRI/Sal I digested expression vector (pEGFP-N1, Invitrogen). The resulting reporter plasmid, pAdML-Theo29AG-EGFP, contains the cDNA of AdML-Theo29AG pre-mRNA fused 5′ to the GFP coding sequence.
# To examine theophylline-mediated regulation of AdML-Theo29AG splicing, HEK293 cells were transfected with pAdML-Theo29AG-EGFP reporter using polyfectin following manufacturer's instructions (Qiagen). Cells were grown and maintained in a humidified atmosphere at 37° C. under 5% CO2 in Dulbecco's Modified Eagle Medium (Cellgro) supplemented with 10% fetal bovine serum and antibiotics (100 μg/ml streptomycin and 100 U/ml penicillin). For transfection, cells (3×10^4, per well) were seeded in a 24 well plate and incubated for 24 h (50-80% confluency) at which time pAdML-Theo29AG-EGFP or pEGFP-N1 was introduced. After 10 hours of incubation, cells were treated with buffer or theophylline ([…]) and incubation was continued up to 48 hours. The GFP expression was visualized with a fluorescence microscope and cells were photographed with color CCD camera (Olympus).
# An RT-PCR assay was performed to confirm that theophylline-mediated reduction of GFP expression is due to the inhibition of AdML-Theo29AG-EGFP splicing and not the result of mRNA degradation. Total RNA was isolated (from 3×10^4 cells) using trizol reagent. In a total volume of 20 μl, 5 μg of total RNA was reverse transcribed (RT) using vector specific reverse primer (GFPR, 5′-[…]-3′) according to manufacturer's instructions (Invitrogen Kit). Next, an aliquot (2 μl) of RT product was subjected to PCR amplification in a 50 μl reaction using 2.5 units of Taq polymerase, vector specific forward (GFPF, 5′-[…]-3′) and reverse primer (GFPR, 5′-[…]-3′). The amplified product was analyzed on a 2% agarose gel. […] Unlike the untreated control, which generated ˜250 bp fragment, theophylline treated cell yielded a PCR product corresponding to the size of unspliced RNA (˜350-bp).
structure (smiles),measurement,setting,value
Cn1c(=O)c2[nH]cnc2n(C)c1=O [theophylline],effect on step II of MINX-Theo28AG splicing,MINX-Theo28AG pre-mRNA,efficiently inhibit the step II of the splicing
same,splicing of AdML-Theo29AG-EGFP pre-mRNA by RT-PCR,[1]; HEK293,repressed the splicing
same,GFP expression of cells transfected with control plasmid pEGFP-N1,"[1]; HEK293, control plasmid",virtually no effect
same,GFP expression of cells transfected with pAdML-Theo29AG-EGFP,"[1]; HEK293, theophylline, up to 48 hours",dose dependent decrease in GFP expression
same,theophylline concentration sufficient to inhibit pre-mRNA splicing (FIG. 11),[1]; living cells,0.1 to 0.5 mM
